# Laboratory results as given in patent US10724099B2, “Multiplex methods to assay mixed cell populations simultaneously” (The Broad Institute, Inc., priority 2012, dated 2020).
# Tests used:
# [1] = system: HCT-116 cells; assay: DNA content by propidium iodide flow cytometry; type: cell-based; details: 10 μM, 24 hours or 48 hours
# Description: In addition, HCT-116 cells were treated with 10 μM of DMSO, or the Aurora Kinase Inhibitors barasertib, GSK1070916, MLN8054, BRD-7880, or tozasertib. 24 hours or 48 hours following treatment, cells were stained with propidium iodide and DNA content per cell was assessed using a Becton Dickinson LSR II flow cytometer.
# [2] = target: T1, ABL1(E255K)---phosphorylated (Homo sapiens, UniProt P00519, E255K); assay: DiscoveRx KinomeScan binding; details: Entrez ABL1
# T1 construct: purchased DiscoveRx (KINOMEscan scanEDGE panel)
# [3] = target: T2, ABL1(T315I)---phosphorylated (Homo sapiens, UniProt P00519, T315I); assay: DiscoveRx KinomeScan binding; details: Entrez ABL1
# T2 construct: purchased DiscoveRx (KINOMEscan scanEDGE panel)
# [4] = target: T3, ALK (Homo sapiens, UniProt Q9UM73); assay: DiscoveRx KinomeScan binding
# T3 construct: purchased DiscoveRx (KINOMEscan scanEDGE panel)
# [5] = target: T4, BTK (Homo sapiens, UniProt Q06187); assay: DiscoveRx KinomeScan binding
# T4 construct: purchased DiscoveRx (KINOMEscan scanEDGE panel)
# [6] = target: T5, CDK3 (Homo sapiens, UniProt Q00526); assay: DiscoveRx KinomeScan binding
# T5 construct: purchased DiscoveRx (KINOMEscan scanEDGE panel)
# [7] = target: T6, CDK9 (Homo sapiens, UniProt P50750); assay: DiscoveRx KinomeScan binding
# T6 construct: purchased DiscoveRx scanEDGE panel
# [8] = target: T7, CHEK1 (Homo sapiens, UniProt O14757); assay: DiscoveRx KinomeScan binding
# T7 construct: purchased DiscoveRx scanEDGE panel
# [9] = target: T8, CSF1R (Homo sapiens, UniProt P07333); assay: DiscoveRx KinomeScan binding
# T8 construct: purchased DiscoveRx scanEDGE panel
# [10] = target: T9, CSNK1D (Homo sapiens, UniProt P48730); assay: DiscoveRx KinomeScan binding
# T9 construct: purchased DiscoveRx scanEDGE panel
# [11] = target: T10, DYRK1B (Homo sapiens, UniProt Q9Y463); assay: DiscoveRx KinomeScan binding
# T10 construct: purchased DiscoveRx scanEDGE panel
# [12] = target: T11, EGFR(L858R) (Homo sapiens, UniProt P00533, L858R); assay: DiscoveRx KinomeScan binding
# T11 construct: purchased DiscoveRx scanEDGE panel
# [13] = target: T12, ERK1 (Homo sapiens, UniProt P27361); assay: DiscoveRx KinomeScan binding; details: Entrez MAPK3
# T12 construct: purchased DiscoveRx scanEDGE panel
# [14] = target: T13, FGFR2 (Homo sapiens, UniProt P21802); assay: DiscoveRx KinomeScan binding
# T13 construct: purchased DiscoveRx scanEDGE panel
# [15] = target: T14, FLT3 (Homo sapiens, UniProt P36888); assay: DiscoveRx KinomeScan binding
# T14 construct: purchased DiscoveRx scanEDGE panel
# [16] = target: T15, INSR (Homo sapiens, UniProt P06213); assay: DiscoveRx KinomeScan binding
# T15 construct: purchased DiscoveRx scanEDGE panel
# [17] = target: T16, JNK1 (Homo sapiens, UniProt P45983); assay: DiscoveRx KinomeScan binding; details: Entrez MAPK8
# T16 construct: purchased DiscoveRx scanEDGE panel
# [18] = target: T17, JNK3 (Homo sapiens, UniProt P53779); assay: DiscoveRx KinomeScan binding; details: Entrez MAPK10
# T17 construct: purchased DiscoveRx scanEDGE panel (KinomeScan)
# [19] = target: T18, KIT (Homo sapiens, UniProt P10721); assay: DiscoveRx KinomeScan binding
# T18 construct: purchased DiscoveRx scanEDGE panel (KinomeScan)
# [20] = target: T19, KIT(V559D,T670I) (Homo sapiens, UniProt P10721, T670I/V559D); assay: DiscoveRx KinomeScan binding
# T19 construct: purchased DiscoveRx scanEDGE panel (KinomeScan)
# [21] = target: T20, LKB1 (Homo sapiens, UniProt Q15831); assay: DiscoveRx KinomeScan binding; details: Entrez STK11
# T20 construct: purchased DiscoveRx scanEDGE panel (KinomeScan)
# [22] = target: T21, MARK3 (Homo sapiens, UniProt P27448); assay: DiscoveRx KinomeScan binding
# T21 construct: purchased DiscoveRx scanEDGE panel (KinomeScan)
# [23] = target: T22, MET (Homo sapiens, UniProt P08581); assay: DiscoveRx KinomeScan binding
# T22 construct: purchased DiscoveRx scanEDGE panel (KinomeScan)
# [24] = target: T23, MKNK1 (Homo sapiens, UniProt Q9BUB5); assay: DiscoveRx KinomeScan binding
# T23 construct: purchased DiscoveRx scanEDGE panel (KinomeScan)
# [25] = target: T24, MKNK2 (Homo sapiens, UniProt Q9HBH9); assay: DiscoveRx KinomeScan binding
# T24 construct: purchased DiscoveRx scanEDGE panel (KinomeScan)
# [26] = target: T25, p38---beta (Homo sapiens, UniProt Q15759); assay: DiscoveRx KinomeScan binding; details: Entrez MAPK11
# T25 construct: purchased DiscoveRx scanEDGE panel (KinomeScan)
# [27] = target: T26, PAK1 (Homo sapiens, UniProt Q13153); assay: DiscoveRx KinomeScan binding
# T26 construct: purchased DiscoveRx scanEDGE panel (KinomeScan)
# [28] = target: T27, PDGFRA (Homo sapiens, UniProt P16234); assay: DiscoveRx KinomeScan binding
# T27 construct: purchased DiscoveRx scanEDGE panel (KinomeScan)
# [29] = target: T28, PIK3CG (Homo sapiens, UniProt P48736); assay: DiscoveRx KinomeScan binding
# T28 construct: purchased DiscoveRx scanEDGE panel
# [30] = target: T29, PIM1 (Homo sapiens, UniProt P11309); assay: DiscoveRx KinomeScan binding
# T29 construct: purchased DiscoveRx scanEDGE panel
# [31] = target: T30, PKAC---alpha (Homo sapiens, UniProt P17612); assay: DiscoveRx KinomeScan binding; details: Entrez PRKACA
# T30 construct: purchased DiscoveRx scanEDGE panel
# [32] = target: T31, PLK1 (Homo sapiens, UniProt P53350); assay: DiscoveRx KinomeScan binding
# T31 construct: purchased DiscoveRx scanEDGE panel
# [33] = target: T32, PLK4 (Homo sapiens, UniProt O00444); assay: DiscoveRx KinomeScan binding
# T32 construct: purchased DiscoveRx scanEDGE panel
# [34] = target: T33, RET (Homo sapiens, UniProt P07949); assay: DiscoveRx KinomeScan binding
# T33 construct: purchased DiscoveRx scanEDGE panel
# [35] = target: T34, RSK2(Kin.Dom.1---N---terminal) (Homo sapiens, UniProt P51812); assay: DiscoveRx KinomeScan binding; details: Entrez RPS6KA3
# T34 construct: RSK2(Kin.Dom.1---N---terminal); purchased DiscoveRx scanEDGE panel
# [36] = target: T35, SRC (Homo sapiens, UniProt P12931); assay: DiscoveRx KinomeScan binding
# T35 construct: purchased DiscoveRx scanEDGE panel
# [37] = target: T36, TSSK1B (Homo sapiens, UniProt Q9BXA7); assay: DiscoveRx KinomeScan binding
# T36 construct: purchased DiscoveRx scanEDGE panel
# [38] = target: T37, ULK2 (Homo sapiens, UniProt Q8IYT8); assay: DiscoveRx KinomeScan binding
# T37 construct: purchased DiscoveRx scanEDGE panel
# [39] = target: T38, VEGFR2 (Homo sapiens, UniProt P35968); assay: DiscoveRx KinomeScan binding; details: Entrez KDR
# T38 construct: purchased DiscoveRx scanEDGE panel
# T38 sequence (P35968 20-1356): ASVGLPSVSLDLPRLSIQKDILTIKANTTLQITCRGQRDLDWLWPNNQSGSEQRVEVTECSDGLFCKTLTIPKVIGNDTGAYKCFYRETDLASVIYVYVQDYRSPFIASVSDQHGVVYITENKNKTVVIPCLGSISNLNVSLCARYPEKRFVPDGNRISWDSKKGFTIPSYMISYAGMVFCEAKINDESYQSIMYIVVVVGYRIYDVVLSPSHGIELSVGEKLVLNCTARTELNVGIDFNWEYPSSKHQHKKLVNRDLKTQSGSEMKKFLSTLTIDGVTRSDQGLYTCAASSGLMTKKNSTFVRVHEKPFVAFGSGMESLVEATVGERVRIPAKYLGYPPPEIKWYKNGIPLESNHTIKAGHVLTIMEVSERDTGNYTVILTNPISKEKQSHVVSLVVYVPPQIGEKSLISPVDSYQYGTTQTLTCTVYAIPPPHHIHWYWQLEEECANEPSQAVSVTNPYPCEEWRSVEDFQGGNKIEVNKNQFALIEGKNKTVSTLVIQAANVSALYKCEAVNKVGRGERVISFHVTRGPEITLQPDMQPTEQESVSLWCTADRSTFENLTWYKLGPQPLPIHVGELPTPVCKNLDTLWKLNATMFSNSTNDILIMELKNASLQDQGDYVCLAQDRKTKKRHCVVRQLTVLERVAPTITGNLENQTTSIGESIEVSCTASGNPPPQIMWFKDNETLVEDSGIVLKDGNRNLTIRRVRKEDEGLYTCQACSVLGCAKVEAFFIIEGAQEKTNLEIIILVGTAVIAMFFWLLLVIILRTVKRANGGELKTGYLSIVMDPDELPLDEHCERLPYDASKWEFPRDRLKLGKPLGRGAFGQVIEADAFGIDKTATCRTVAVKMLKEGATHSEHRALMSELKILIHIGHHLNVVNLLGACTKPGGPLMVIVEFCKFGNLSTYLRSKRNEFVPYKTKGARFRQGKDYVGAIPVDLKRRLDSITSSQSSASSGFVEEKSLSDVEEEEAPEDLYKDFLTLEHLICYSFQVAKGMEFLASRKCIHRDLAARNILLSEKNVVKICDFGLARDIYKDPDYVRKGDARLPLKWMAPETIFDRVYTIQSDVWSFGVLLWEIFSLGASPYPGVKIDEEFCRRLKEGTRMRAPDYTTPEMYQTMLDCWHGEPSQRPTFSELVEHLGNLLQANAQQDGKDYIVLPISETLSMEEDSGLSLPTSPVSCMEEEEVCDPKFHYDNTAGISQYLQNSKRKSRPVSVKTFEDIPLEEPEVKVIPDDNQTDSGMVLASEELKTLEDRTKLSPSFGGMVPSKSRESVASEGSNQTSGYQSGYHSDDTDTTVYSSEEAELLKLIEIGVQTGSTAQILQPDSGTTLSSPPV
# T27 sequence (P16234 24-1089): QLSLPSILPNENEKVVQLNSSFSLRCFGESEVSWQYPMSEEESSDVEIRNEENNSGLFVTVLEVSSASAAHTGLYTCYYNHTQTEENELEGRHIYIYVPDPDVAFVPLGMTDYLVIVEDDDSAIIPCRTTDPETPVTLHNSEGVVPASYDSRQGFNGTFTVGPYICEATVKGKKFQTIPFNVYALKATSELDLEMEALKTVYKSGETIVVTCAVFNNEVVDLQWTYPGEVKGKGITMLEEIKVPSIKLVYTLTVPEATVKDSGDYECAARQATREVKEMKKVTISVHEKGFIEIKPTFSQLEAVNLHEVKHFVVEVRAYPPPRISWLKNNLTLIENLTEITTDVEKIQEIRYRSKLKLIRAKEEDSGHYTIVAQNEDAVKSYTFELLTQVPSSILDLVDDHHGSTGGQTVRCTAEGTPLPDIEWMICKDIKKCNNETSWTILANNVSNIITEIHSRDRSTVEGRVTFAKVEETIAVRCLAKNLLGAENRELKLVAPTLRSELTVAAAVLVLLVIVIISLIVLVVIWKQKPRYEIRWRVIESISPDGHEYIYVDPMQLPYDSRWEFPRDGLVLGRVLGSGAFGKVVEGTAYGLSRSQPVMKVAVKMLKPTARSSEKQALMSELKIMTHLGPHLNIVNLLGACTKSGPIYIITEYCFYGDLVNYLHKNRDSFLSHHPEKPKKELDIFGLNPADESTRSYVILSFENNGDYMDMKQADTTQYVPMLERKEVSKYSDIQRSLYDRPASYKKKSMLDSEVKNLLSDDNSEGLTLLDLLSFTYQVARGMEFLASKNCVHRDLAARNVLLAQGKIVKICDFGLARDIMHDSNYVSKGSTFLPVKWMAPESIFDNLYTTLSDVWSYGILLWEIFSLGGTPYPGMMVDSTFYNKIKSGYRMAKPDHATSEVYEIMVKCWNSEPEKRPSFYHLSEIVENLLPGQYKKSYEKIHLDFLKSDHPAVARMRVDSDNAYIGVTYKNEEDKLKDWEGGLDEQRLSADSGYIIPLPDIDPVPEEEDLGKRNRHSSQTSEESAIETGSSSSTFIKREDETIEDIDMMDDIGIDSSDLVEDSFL
# T3 sequence (Q9UM73 19-1620): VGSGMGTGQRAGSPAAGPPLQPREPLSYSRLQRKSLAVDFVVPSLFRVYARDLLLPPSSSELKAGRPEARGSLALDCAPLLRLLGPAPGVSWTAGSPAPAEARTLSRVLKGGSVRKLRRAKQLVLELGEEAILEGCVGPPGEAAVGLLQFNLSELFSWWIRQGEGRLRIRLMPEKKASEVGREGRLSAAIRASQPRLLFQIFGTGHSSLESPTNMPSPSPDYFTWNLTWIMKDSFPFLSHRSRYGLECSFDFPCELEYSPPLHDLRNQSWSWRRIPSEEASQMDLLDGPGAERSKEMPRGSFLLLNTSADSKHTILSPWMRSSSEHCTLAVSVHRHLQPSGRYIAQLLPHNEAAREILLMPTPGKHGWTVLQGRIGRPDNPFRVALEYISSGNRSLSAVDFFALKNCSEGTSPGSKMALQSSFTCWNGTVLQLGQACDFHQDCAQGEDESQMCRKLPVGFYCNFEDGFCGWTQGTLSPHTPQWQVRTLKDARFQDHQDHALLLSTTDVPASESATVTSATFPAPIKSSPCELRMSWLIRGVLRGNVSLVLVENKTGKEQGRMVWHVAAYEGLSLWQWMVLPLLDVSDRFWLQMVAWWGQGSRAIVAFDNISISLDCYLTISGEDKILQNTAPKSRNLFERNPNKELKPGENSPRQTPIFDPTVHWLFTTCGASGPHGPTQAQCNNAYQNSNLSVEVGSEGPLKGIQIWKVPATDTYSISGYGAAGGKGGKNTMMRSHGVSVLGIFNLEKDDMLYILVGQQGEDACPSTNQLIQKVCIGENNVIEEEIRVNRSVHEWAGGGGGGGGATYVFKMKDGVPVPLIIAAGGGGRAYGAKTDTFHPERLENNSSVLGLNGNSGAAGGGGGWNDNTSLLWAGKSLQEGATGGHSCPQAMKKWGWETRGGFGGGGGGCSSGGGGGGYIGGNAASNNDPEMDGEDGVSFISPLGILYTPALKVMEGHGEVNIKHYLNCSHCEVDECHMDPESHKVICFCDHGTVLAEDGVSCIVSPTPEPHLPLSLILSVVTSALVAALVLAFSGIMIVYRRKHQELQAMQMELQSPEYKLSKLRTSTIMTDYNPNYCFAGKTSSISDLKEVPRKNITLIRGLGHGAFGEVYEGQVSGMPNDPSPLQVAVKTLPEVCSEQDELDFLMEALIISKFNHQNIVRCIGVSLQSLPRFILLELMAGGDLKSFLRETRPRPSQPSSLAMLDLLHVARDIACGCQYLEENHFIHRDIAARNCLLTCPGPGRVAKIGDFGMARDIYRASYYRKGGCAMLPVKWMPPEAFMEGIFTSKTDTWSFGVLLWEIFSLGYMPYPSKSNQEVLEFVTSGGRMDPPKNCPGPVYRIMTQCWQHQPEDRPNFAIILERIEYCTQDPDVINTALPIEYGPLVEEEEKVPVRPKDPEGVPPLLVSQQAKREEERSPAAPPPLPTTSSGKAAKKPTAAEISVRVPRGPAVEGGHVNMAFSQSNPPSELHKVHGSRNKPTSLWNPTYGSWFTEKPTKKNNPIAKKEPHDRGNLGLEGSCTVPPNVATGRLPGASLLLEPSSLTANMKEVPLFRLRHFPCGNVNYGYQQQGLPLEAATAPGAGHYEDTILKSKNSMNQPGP
# T9 sequence (P48730 whole entry): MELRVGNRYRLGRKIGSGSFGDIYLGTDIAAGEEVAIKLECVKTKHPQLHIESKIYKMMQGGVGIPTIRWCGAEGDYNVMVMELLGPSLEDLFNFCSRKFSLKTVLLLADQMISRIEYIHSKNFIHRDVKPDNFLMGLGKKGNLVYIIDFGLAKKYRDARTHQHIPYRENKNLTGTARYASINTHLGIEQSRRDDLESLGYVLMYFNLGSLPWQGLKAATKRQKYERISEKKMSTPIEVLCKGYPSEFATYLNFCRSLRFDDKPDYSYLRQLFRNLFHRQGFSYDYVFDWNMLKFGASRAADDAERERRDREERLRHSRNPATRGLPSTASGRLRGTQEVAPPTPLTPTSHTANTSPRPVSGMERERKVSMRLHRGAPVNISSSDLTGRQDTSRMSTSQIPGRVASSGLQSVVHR
# T10 sequence (Q9Y463 whole entry): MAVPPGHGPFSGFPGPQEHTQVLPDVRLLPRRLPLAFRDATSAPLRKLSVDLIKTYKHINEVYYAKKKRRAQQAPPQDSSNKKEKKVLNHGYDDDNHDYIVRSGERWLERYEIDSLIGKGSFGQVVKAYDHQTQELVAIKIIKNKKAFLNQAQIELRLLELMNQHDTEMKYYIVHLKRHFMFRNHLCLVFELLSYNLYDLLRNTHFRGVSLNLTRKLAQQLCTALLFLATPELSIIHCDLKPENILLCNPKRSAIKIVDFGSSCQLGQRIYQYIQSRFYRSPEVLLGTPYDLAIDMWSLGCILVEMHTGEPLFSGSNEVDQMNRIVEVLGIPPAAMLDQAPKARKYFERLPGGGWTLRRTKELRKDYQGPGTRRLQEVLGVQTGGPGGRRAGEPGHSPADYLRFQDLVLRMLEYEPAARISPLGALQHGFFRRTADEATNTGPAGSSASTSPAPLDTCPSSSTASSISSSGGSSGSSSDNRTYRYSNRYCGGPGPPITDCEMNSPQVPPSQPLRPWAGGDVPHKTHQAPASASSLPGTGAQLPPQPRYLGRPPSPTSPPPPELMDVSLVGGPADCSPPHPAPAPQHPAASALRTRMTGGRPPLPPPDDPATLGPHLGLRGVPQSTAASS
structure (smiles),measurement,setting,value
COc1ccc(NC(=O)Nc2ccc3c(c2)C(=O)N([C@@H](C)CO)C[C@H](C)[C@H](CN(C)Cc2ccc4c(c2)OCO4)O3)cc1 [BRD-7880],DNA content per cell,[1],increased DNA content
same,Percent Control,[2],80%
same,Percent Control,[3],44%
same,Percent Control,[4],100%
same,Percent Control,[5],94%
same,Percent Control,[6],76%
same,Percent Control,[7],90%
same,Percent Control,[8],100%
same,Percent Control,[9],100%
same,Percent Control,[10],100%
same,Percent Control,[11],55%
same,Percent Control,[12],60%
same,Percent Control,[13],92%
same,Percent Control,[14],77%
same,Percent Control,[15],65%
same,Percent Control,[16],36%
same,Percent Control,[17],91%
same,Percent Control,[18],70%
same,Percent Control,[19],77%
same,Percent Control,[20],100%
same,Percent Control,[21],39%
same,Percent Control,[22],100%
same,Percent Control,[23],100%
same,Percent Control,[24],87%
same,Percent Control,[25],77%
same,Percent Control,[26],87%
same,Percent Control,[27],77%
same,Percent Control,[28],90%
same,Percent Control,[29],100%
same,Percent Control,[30],87%
same,Percent Control,[31],69%
same,Percent Control,[32],39%
same,Percent Control,[33],61%
same,Percent Control,[34],100%
same,Percent Control,[35],80%
same,Percent Control,[36],81%
same,Percent Control,[37],57%
same,Percent Control,[38],100%
same,Percent Control,[39],100%
